# Reference: patent publication EP3443956A1, “A COMPOUND INCREASING ENDOCANNABINOIDS CONCENTRATION IN A SUBJECT FOR USE FOR PREVENTING AND/OR TREATING A SOCIAL BEHAVIOR DISORDER” (INSTITUT NATIONAL DE LA SANTE ET DE LA RECHERCHE MEDICALE …, priority 2017, dated 2019)
# Read-outs that look alike come from different tables or passages of the source.
# Tests used:
# [1] = tested on: eCB-LTD of excitatory synapses onto layer 5 mPFC pyramidal neurons; assay: Field potential recordings of eCB-LTD in mPFC slices; set-up: species or system rat
# Protocol: (§1) Treatment was performed daily with the CB1 R receptor agonist WIN55,212-2 (0.5 mg/kg) or Delta9-Tetrahydrocannabinol (THC, 5 mg/kg) or their respective vehicles from GD 5 to GD 20. WIN55,212-2 was suspended in 5% DMSO, 5% cremophor and saline, and injected s.c. at a volume of 1 ml/kg. Control dams (Sham group) received a similar volume injection of vehicle solution. THC was suspended in 5% Ethanol, 5% cremophor and saline, and injected s.c. at a volume of 1 ml/kg.
# (§2) Pups were weaned at 21 days of age. For behavioral and electrophysiological experiments male and female rats were tested at adulthood (postnatal day 90-120).
# Adult male and female rats were anesthetized with isoflurane and killed as previously described (Martin and Manzoni, 2014). The brain was sliced (300 µm) in the coronal plane with a vibratome (Integraslice, Campden Instruments) in a sucrose-based solution at 4°C (in mm as follows: 87 NaCl, 75 sucrose, 25 glucose, 2.5 KCI, 4 MgCl2, 0.5 CaCl2, 23 NaHCO3 and 1.25 NaH2PO4). Immediately after cutting, slices containing the medial prefrontal cortex (PFC) or accumbens were stored for 1 h at 32°C in a low calcium ACSF that contained (in mm) as follows: 130 NaCl, 11 glucose, 2.5 KCI, 2.4 MgCl2, 1.2 CaCl2, 23 NaHCO3, 1.2 NaH2PO4, and were equilibrated with 95% 02/5% CO2 and then at room temperature until the time of recording.
# Field potential recordings were made in coronal slices containing the mPFC or the accumbens as previously described (Robbe et al., 2002). During the recording, slices were placed in the recording chamber and superfused at 2 ml/min with either low Ca2+ ACSF for mPFC or normal ACSF for the accumbens. All experiments were done at 32°C or room temperature for mPFC and accumbens, respectively. The superfusion medium contained picrotoxin (100 µM) to block GABA Type A (GABA-A) receptors. All drugs were added at the final concentration to the superfusion medium.
# For extracellular field experiments, the recording pipette was filled with ACSF.
# Both fEPSP area and amplitude were analyzed. Stimulation was performed with a glass electrode filled with ACSF and the stimulus intensity was adjusted ∼60% of maximal intensity after performing an input-output curve (baseline EPSC amplitudes ranged between 50 and 150 pA). Stimulation frequency was set at 0.1 Hz.
# The magnitude of plasticity was calculated 38-40 min after induction as percentage of baseline responses. Statistical analysis of data was performed with Prism (GraphPad Software) using tests indicated in the main text after outlier subtraction. All values are given as mean ± SEM, and statistical significance was set at p < 0.05.
# adult rats = type: in vivo, rat
# Protocol: Wistar female rats (Charles River, France) weighing 250-280 g were housed at constant room temperature (20 ± 1°C) and humidity (60%), and exposed to a light cycle of 12 h/day (08:00 a.m. to 08:00 p.m.), with food and water available ad libitum. For mating, pairs of females were placed with single male rats in the late afternoon. Vaginal smears were taken the following morning at 09:00 a.m. The day on which sperm was present was designated as the day 0 of gestation (GD 0).
# as §1, §2
# The test was performed in a sound attenuated chamber under dim light conditions. The testing arena consisted of a Plexiglas cage measuring 45 × 45 cm, with 2 cm of wood shavings covering the floor. Social behavior was assessed as previously described (Trezza et al., 2012).
# Briefly, adult rats were individually habituated to the test cage for 5 min (adult rats) on each of the 2 days prior to testing. Before testing, adult animals were socially isolated for 24 h, respectively, to enhance their social motivation and thus facilitate the expression of social behaviors during testing. Drug treatments were counterbalanced so that cage mates were allocated to different treatment groups. […] Behavior was assessed per pair of animals and analyzed by a trained observer who was unaware of treatment condition using the Ethovision XT video tracking software (Noldus, Wageningen, The Netherlands).
# The test consisted of placing two similarly treated animals into the test cage for 10 min (adult rats). In rats, a bout of social play behavior starts with one rat soliciting ('pouncing') another animal, by attempting to nose or rub the nape of its neck. The animal that is pounced upon can respond in different ways. If the animal that is pounced upon fully rotates to its dorsal surface, 'pinning' is the result, i.e., one animal lying with its dorsal surface on the floor with the other animal standing over it. From this position, the supine animal can initiate another play bout, by trying to gain access to the other animal's neck. Thus, during social play, pouncing is considered an index of play solicitation, while pinning can be regarded as the terminal component of a single play bout as well as a releaser of a prolonged play bout. Pinning and pouncing frequencies can be easily quantified and they are considered to be the most characteristic parameters of social play behavior in rats. During the social encounter, animals may also display social behaviors not directly associated with play, such as sniffing or grooming the partner's body. A pair of rats was considered as one experimental unit. […]
# [2] = tested on: eCB-LTD of excitatory synapses onto medium spiny neurons (MSNs); assay: Field potential recordings of eCB-LTD in accumbens slices
# [3] = Sham adult female rats, capsazepine 5 mg/Kg i.p., 30 min before testing
structure (smiles),measurement,setting,value
N#Cc1cc2[nH]c(=O)c(=O)[nH]c2cc1[N+](=O)[O-] [CNQX],effect on the field EPSP (fEPSP),"[1]; CNQX 20 µM at the end of the experiments, data not shown",specifically blocked the synaptic component without altering the nonsynaptic component
"Cc1c(C(=O)NN2CCCCC2)nn(-c2ccc(Cl)cc2Cl)c1-c1ccc(Cl)cc1 [SR141716, 5-(4-chloro-phenyl)-1-(2,4-dichlorophenyl)-4-methyl-N-1-piperidinyl-1H-pyrazole-3-carboxamide]",effect on the curating actions of URB597 on social interaction,"adult rats; adult male rats exposed in utero to WIN55,212-2, SR141716 1 mg/kg i.p. 30 min before URB597 0.1 mg/Kg i.p.",prevented the curating actions of URB597
same,effect of the antagonist by itself on social interaction,"adult rats; adult rats, SR141716 1 mg/kg i.p.",did not induce effects by itself
same,effect on LTD in mPFC,"[1]; Sham adult male rats, slices preincubated for 45 min in 5 µM SR141716",completely blocked LTD
same,effect on LTD of evoked EPSPs in mPFC,"[1]; adult females exposed in utero to WIN55,212-2, slices preincubated for 45 min in 5 µM SR141716",not mediated by CB1 R receptors
same,block of the URB597 rescue of eCB-LTD,"[1]; adult male rats exposed in utero to WIN55,212-2, URB597 2 µM plus SR141716 5 µM",blocked the URB597 rescue
"NC(=O)c1cccc(-c2cccc(OC(=O)NC3CCCCC3)c2)c1 [URB597, (3'-(aminocarbonyl)[1,1'-biphenyl]-3-yl)-cyclohexylcarbamate]",social interaction (social deficits),"adult rats; adult male rats exposed in utero to WIN55,212-2, URB597 0.1 mg/kg i.p., 2 h before testing",ameliorated social deficits
same,restoration of eCB-LTD in the PFC,"[1]; adult male rats exposed in utero to WIN55,212-2, slices incubated with URB597 2 µM for 45-90 min before LTD induction",sufficient to restore eCB-LTD
"Cc1c(C(=O)c2cccc3ccccc23)c2cccc3c2n1[C@H](CN1CCOCC1)CO3 [WIN55,212-2]",eCB-LTD in accumbens,[2],robust eCB-LTD
same,distance travelled during the test,"adult rats; rat, in vivo",3779 ± 228.8 cm
same,contact with congeners (total frequency of social interaction),"adult rats; rat, in vivo, sc",had less contact with their congeners
same,time in social interactions,"adult rats; rat, in vivo, sc",spent less time in social interactions
same,total frequency of social interaction,"adult rats; rat, in vivo, sc",no difference
same,total time of social interaction,"adult rats; rat, in vivo, sc",no difference
"Oc1cc2c(cc1O)CN(C(=S)NCCc1ccc(Cl)cc1)CCC2 [capsazepine, N-[2-(4-Chlorophenyl)ethyl]-1,3,4,5-tetrahydro-7,8-dihydroxy-2H-2-benzazepine-2-carbothioamide]",frequency of social interaction,adult rats; [3],reduced
same,total time of social interaction,adult rats; [3],reduced
same,effect on the curating effects of URB597 on social interaction,"adult rats; adult rats exposed in utero to WIN55,212-2, capsazepine with URB597 0.1 mg/kg i.p.",did not block the curating effects of URB597
same,effect on LTD in mPFC,"[1]; Sham adult female rats, slices preincubated for 45 min in 10 µM capsazepine",completely blocked LTD
